From PubChem BioAssay AID1745844 (Carcinogenic Potency Database (CPDB), 2022) come the findings set out here.

Active and inactive are the calls of the source. How the calls were made is not given here.

The series has as its system rodent lifetime carcinogenesis bioassay, tumor incidence TD50. As to the kind of experiment: chronic cancer bioassays in animals – CPDB, compiled studies (AID 1745844).

By TD50 is commonly meant the dose at which the toxic effect under study appears in half of the subjects. On to `CCN(CC)C(=O)Nc1ccc(OCC(O)CNC(C)(C)C)c(C(C)=O)c1` (centres undefined), for which the TD50 was 8020 mg/kg/day (inactive) (mouse, strain Charles River CD1, females, in feed, site: lung, lesion: several types, types named in the paper, dosed 104 weeks, study length 104 weeks); 4710 mg/kg/day (inactive) (mouse, strain Charles River CD1, males, in feed, site: lung, lesion: several types, types named in the paper, dosed 104 weeks, study length 104 weeks); 2480 mg/kg/day (inactive) (rat, strain Sprague-Dawley, females, in feed, site: any site (literature study), lesion: several types, types named in the paper, dosed 104 weeks, study length 104 weeks); 38100 mg/kg/day (inactive) (rat, strain Sprague-Dawley, females, in feed, site: liver, lesion: hepatocellular adenoma, dosed 104 weeks, study length 104 weeks); 38100 mg/kg/day (inactive) (rat, strain Sprague-Dawley, females, in feed, site: liver, lesion: hepatocellular carcinoma, dosed 104 weeks, study length 104 weeks); 684 mg/kg/day (inactive) (rat, strain Sprague-Dawley, males, in feed, site: any site (literature study), lesion: several types, types named in the paper, dosed 104 weeks, study length 104 weeks). Further, the TD50 (rat, strain Sprague-Dawley, males, in feed, site: liver, lesion: hepatocellular adenoma, dosed 104 weeks, study length 104 weeks) was 12400 mg/kg/day (inactive). Further, the carcinogen call (rat, strain Sprague-Dawley, males, in feed, site: liver, lesion: hepatocellular carcinoma, dosed 104 weeks, study length 104 weeks) is “negative (inactive)”.

For the molecule `COc1cc(NC(=O)C(N=Nc2ccc(-c3ccc(N=NC(C(C)=O)C(=O)Nc4cc(OC)c(Cl)cc4OC)c(Cl)c3)cc2Cl)C(C)=O)c(OC)cc1Cl` (centres undefined), the carcinogen call (mouse, strain NMRI, both sexes, in feed, site: any site (literature study), lesion: one or several types, types not named, dosed 104 weeks, study length 104 weeks) is “negative (inactive)”. Further, the TD50 (rat, strain Sprague-Dawley, both sexes, in feed, site: any site (literature study), lesion: one or several types, types not named, dosed 104 weeks, study length 104 weeks) was 3560 mg/kg/day (inactive).

Take `Brc1cc(-c2ccc(Br)c(Br)c2Br)cc(Br)c1Br`: the TD50 (rat, strain Sprague-Dawley Spartan, females, in feed, site: any site (literature study), lesion: several types, types named in the paper, dosed 57 weeks, study length 57 weeks) is 5.91 mg/kg/day (inactive). In addition, the carcinogen call (rat, strain Sprague-Dawley Spartan, females, in feed, site: liver, lesion: one or several types, types not named, dosed 57 weeks, study length 57 weeks) is “negative (inactive)”.

`ClC1(Cl)C2(Cl)C3(Cl)C4(Cl)C(Cl)(Cl)C5(Cl)C3(Cl)C1(Cl)C5(Cl)C24Cl` (centres undefined): the TD50 (mouse, strain B6AKF1, females, oral dosing, site: any site (literature study), lesion: several types, types named in the paper, dosed 68 weeks, study length 68 weeks) is 1.26 mg/kg/day; the TD50 (mouse, strain B6AKF1, females, oral dosing, site: liver, lesion: hepatoma, dosed 68 weeks, study length 68 weeks) is 1.1 mg/kg/day; the TD50 (mouse, strain B6AKF1, males, oral dosing, site: any site (literature study), lesion: several types, types named in the paper, dosed 58 weeks, study length 58 weeks) came to 3.32 mg/kg/day; the TD50 (mouse, strain B6AKF1, males, oral dosing, site: liver, lesion: hepatoma, dosed 58 weeks, study length 58 weeks) was 2.13 mg/kg/day; the TD50 (mouse, strain B6C3F1, females, oral dosing, site: any site (literature study), lesion: several types, types named in the paper, dosed 69 weeks, study length 69 weeks) is 1.6 mg/kg/day; the TD50 (mouse, strain B6C3F1, females, oral dosing, site: liver, lesion: hepatoma, dosed 69 weeks, study length 69 weeks) was 1.6 mg/kg/day. The TD50 by setting is: (mouse, strain B6C3F1, males, oral dosing, site: any site (literature study), lesion: several types, types named in the paper, dosed 58 weeks, study length 58 weeks) 1.5 mg/kg/day; (mouse, strain B6C3F1, males, oral dosing, site: liver, lesion: hepatoma, dosed 58 weeks, study length 58 weeks) 1.83 mg/kg/day; (mouse, strain B6C3F1, males, oral dosing, site: liver, lesion: several types, types named in the paper, dosed 58 weeks, study length 58 weeks) 1.5 mg/kg/day; (rat, strain Fischer 344, females, in feed, site: any site (literature study), lesion: several types, types named in the paper, dosed 104 weeks, study length 105 weeks) 21.9 mg/kg/day; (rat, strain Fischer 344, females, in feed, site: any site (literature study), lesion: several types, types named in the paper, dosed 104 weeks, study length 107 weeks) 22.4 mg/kg/day; (rat, strain Fischer 344, females, in feed, site: liver + multiple organs + spleen, lesion: hepatocellular carcinoma + neoplastic nodule + mononuclear-cell leukemia, dosed 104 weeks, study length 105 weeks) 3.34 mg/kg/day. The TD50 runs as follows: (rat, strain Fischer 344, females, in feed, site: liver, lesion: hepatocellular adenoma + hepatocellular carcinoma + neoplastic nodule, dosed 104 weeks, study length 105 weeks) 3.17 mg/kg/day; (rat, strain Fischer 344, females, in feed, site: liver, lesion: hepatocellular adenoma + hepatocellular carcinoma + neoplastic nodule, dosed 104 weeks, study length 107 weeks) 16.5 mg/kg/day; (rat, strain Fischer 344, females, in feed, site: liver, lesion: hepatocellular carcinoma + neoplastic nodule, dosed 104 weeks, study length 105 weeks) 3.17 mg/kg/day; (rat, strain Fischer 344, females, in feed, site: liver, lesion: neoplastic nodule, dosed 104 weeks, study length 105 weeks) 3.22 mg/kg/day; (rat, strain Fischer 344, females, in feed, site: multiple organs + spleen, lesion: mononuclear-cell leukemia, dosed 104 weeks, study length 105 weeks) 15.7 mg/kg/day; (rat, strain Fischer 344, females, in feed, site: multiple organs + spleen, lesion: mononuclear-cell leukemia, dosed 104 weeks, study length 107 weeks) 5.97 mg/kg/day. Further, the TD50 reads like this: (rat, strain Fischer 344, males, in feed, site: adrenal gland + kidney/pelvis + liver, lesion: pheochromocytoma + pheochromocytoma, malignant + transitional-cell papilloma + hepatocellular carcinoma + neoplastic nodule, dosed 104 weeks, study length 104 weeks) 0.669 mg/kg/day; (rat, strain Fischer 344, males, in feed, site: adrenal gland, lesion: pheochromocytoma + pheochromocytoma, malignant, dosed 104 weeks, study length 104 weeks) 1.43 mg/kg/day; (rat, strain Fischer 344, males, in feed, site: any site (literature study), lesion: several types, types named in the paper, dosed 104 weeks, study length 104 weeks) 0.618 mg/kg/day; (rat, strain Fischer 344, males, in feed, site: kidney/pelvis, lesion: transitional-cell papilloma, dosed 104 weeks, study length 104 weeks) 13.5 mg/kg/day; (rat, strain Fischer 344, males, in feed, site: liver, lesion: hepatocellular adenoma + hepatocellular carcinoma + neoplastic nodule, dosed 104 weeks, study length 104 weeks) 0.825 mg/kg/day; (rat, strain Fischer 344, males, in feed, site: liver, lesion: hepatocellular carcinoma + neoplastic nodule, dosed 104 weeks, study length 104 weeks) 0.825 mg/kg/day. The TD50 (rat, strain Fischer 344, males, in feed, site: liver, lesion: hepatocellular carcinoma, dosed 104 weeks, study length 104 weeks) amounted to 7.09 mg/kg/day; the TD50 (rat, strain Fischer 344, males, in feed, site: liver, lesion: neoplastic nodule, dosed 104 weeks, study length 104 weeks) is 0.87 mg/kg/day; the TD50 (rat, strain Fischer 344, males, in feed, site: testis, lesion: interstitial-cell tumor, dosed 104 weeks, study length 104 weeks) turned out to be 0.708 mg/kg/day; the TD50 (rat, strain Fischer 344, males, in feed, site: thyroid gland, lesion: follicular-cell adenoma + follicular-cell carcinoma, dosed 104 weeks, study length 104 weeks) is 10.4 mg/kg/day; the TD50 (rat, strain Fischer 344, males, in feed, site: thyroid gland, lesion: follicular-cell adenoma, dosed 104 weeks, study length 104 weeks) came to 12.7 mg/kg/day.

Take `CCOP(=S)(OCC)Oc1ccc([N+](=O)[O-])cc1`: the carcinogen call by setting is: (mouse, strain B6C3F1, females, in feed, site: any site (literature study), lesion: several types, types named in the paper, dosed 80 weeks, study length 89 weeks) “negative (inactive)”; (rat, strain Osborne-Mendel, females, in feed, site: any site (literature study), lesion: several types, types named in the paper, dosed 80 weeks, study length 112 weeks) “negative (inactive)”. Also, the TD50 runs as follows: (mouse, strain B6C3F1, males, in feed, site: any site (literature study), lesion: several types, types named in the paper, dosed 67 weeks, study length 89 weeks) 75.1 mg/kg/day (inactive); (mouse, strain B6C3F1, males, in feed, site: liver, lesion: hepatocellular adenoma + hepatocellular carcinoma + neoplastic nodule, dosed 67 weeks, study length 89 weeks) 111 mg/kg/day; (mouse, strain B6C3F1, males, in feed, site: lung, lesion: alveolar/bronchiolar adenoma + alveolar/bronchiolar carcinoma, dosed 67 weeks, study length 89 weeks) 52.5 mg/kg/day; (rat, strain Osborne-Mendel, females, in feed, site: adrenal gland, lesion: cortical adenoma + cortical carcinoma, dosed 80 weeks, study length 109 weeks) 3.93 mg/kg/day; (rat, strain Osborne-Mendel, females, in feed, site: adrenal gland, lesion: cortical adenoma, dosed 80 weeks, study length 109 weeks) 5.31 mg/kg/day; (rat, strain Osborne-Mendel, females, in feed, site: liver, lesion: hepatocellular adenoma + hepatocellular carcinoma + neoplastic nodule, dosed 80 weeks, study length 112 weeks) 16.4 mg/kg/day. Further, the TD50 was 2.07 mg/kg/day (rat, strain Osborne-Mendel, females, in feed, site: mammary gland, lesion: fibroadenoma, dosed 80 weeks, study length 109 weeks); 5.22 mg/kg/day (rat, strain Osborne-Mendel, males, in feed, site: adrenal gland, lesion: cortical adenoma + cortical carcinoma, dosed 80 weeks, study length 109 weeks); 6.39 mg/kg/day (rat, strain Osborne-Mendel, males, in feed, site: adrenal gland, lesion: cortical adenoma, dosed 80 weeks, study length 109 weeks); 3.65 mg/kg/day (inactive) (rat, strain Osborne-Mendel, males, in feed, site: any site (literature study), lesion: several types, types named in the paper, dosed 80 weeks, study length 112 weeks); 17.7 mg/kg/day (rat, strain Osborne-Mendel, males, in feed, site: liver, lesion: hepatocellular adenoma + hepatocellular carcinoma + neoplastic nodule, dosed 80 weeks, study length 112 weeks); 19.2 mg/kg/day (rat, strain Osborne-Mendel, males, in feed, site: pancreatic islets, lesion: islet-cell carcinoma, dosed 80 weeks, study length 109 weeks).

`O=C(O)c1cccnc1`: the carcinogen call is “negative (inactive)” (mouse, strain Swiss albino, females, in drinking water, site: liver, lesion: several types, types named in the paper, dosed 139 weeks, study length 139 weeks); “negative (inactive)” (mouse, strain Swiss albino, males, in drinking water, site: liver, lesion: several types, types named in the paper, dosed 119 weeks, study length 119 weeks); “negative (inactive)” (mouse, strain Swiss albino, males, in drinking water, site: lung, lesion: one or several types, types not named, dosed 119 weeks, study length 119 weeks). The TD50 (mouse, strain Swiss albino, females, in drinking water, site: lung, lesion: one or several types, types not named, dosed 139 weeks, study length 139 weeks) is 17000 mg/kg/day (inactive).
